Our source for the LC retention time values is the RepoRT retention time repository (doi:10.1016/j.scitotenv.2015.08.078).

This series is described as follows: RP, Waters ACQUITY UPLC BEH C18, 100 × 2.1 mm, 1.7 µm, 0.3 mL/min, estimated dead time 0.73 min; A: water + 0.1% formic acid, pH 3; B: methanol + 0.1% formic acid, pH 3; gradient (min/%B) 0/10 14/90 16/90 18/10. Conditions: stereoisomer not certain.
For the molecule `COC(=O)c1ccccc1S(=O)(=O)NC(=O)Nc1nc(OC(F)F)cc(OC(F)F)n1` [Primisulfuron-methyl], the LC retention time was 8.86 min.

On to `CCN(CC)CCOC(=O)c1ccc(N)cc1` [Procaine], for which the LC retention time is 2.19 min.

Turning to `CCCSP(=O)(OCC)Oc1ccc(Br)cc1Cl` (centres undefined) [Profenofos], the LC retention time is 12.7 min.

Turning to `CNC(=O)Oc1cc(C)cc(C(C)C)c1` [Promecarb], the LC retention time is 10.3 min.

On to `CC(CN1c2ccccc2Sc2ccccc21)N(C)C` (centres undefined) [Promethazine], for which the LC retention time is 9.06 min.

Consider `CSc1nc(NC(C)C)nc(NC(C)C)n1` [Prometryn], for which the LC retention time is 10.8 min.

`CC(C)N(C(=O)CCl)c1ccccc1` [Propachlor]: the LC retention time is 8.99 min.

Consider `CCCOC(=O)NCCCN(C)C` [Propamocarb], for which the LC retention time was 2.28 min.

On to `CCC(=O)Nc1ccc(Cl)c(Cl)c1` [Propanil], for which the LC retention time is 10.3 min.

For the molecule `CC(C)=NOCCOC(=O)C(C)Oc1ccc(Oc2cnc3cc(Cl)ccc3n2)cc1` (centres undefined) [Propaquizafop], the LC retention time was 12.9 min.

With `CC(C)Nc1nc(Cl)nc(NC(C)C)n1` [Propazine], the LC retention time was 9.88 min.

On to `CCNP(=S)(OC)OC(C)=CC(=O)OC(C)C` (centres undefined) [Propetamphos], for which the LC retention time is 10.6 min.

As for `CCCC1COC(Cn2cncn2)(c2ccc(Cl)cc2Cl)O1` (centres undefined) [Propiconazole], the LC retention time is 12.5 min.

For the molecule `CNC(=O)Oc1ccccc1OC(C)C` [Propoxur], the LC retention time was 7.36 min.

Turning to `C#CC(C)(C)NC(=O)c1cc(Cl)cc(Cl)c1` [Propyzamide], the LC retention time is 10.3 min.

Take `CCCN(CCC)C(=O)SCc1ccccc1` [Prosulfocarb]: the LC retention time was 12.6 min.

In the case of `CC1=NNC(=O)N(N=Cc2cccnc2)C1` [Pymetrozine], the LC retention time is 2.25 min.

Consider `CCCSP(=O)(OCC)Oc1cnn(-c2ccc(Cl)cc2)c1` (centres undefined) [Pyraclofos], for which the LC retention time is 12 min.

On to `CCOC(=O)c1cn2nc(OP(=S)(OCC)OCC)cc2nc1C` [Pyrazophos], for which the LC retention time was 11.9 min.

`CCOC(=O)c1cnn(C)c1S(=O)(=O)NC(=O)Nc1nc(OC)cc(OC)n1` [Pyrazosulfuron-ethyl]: the LC retention time was 7.91 min.

For `C=CC=CCC1=C(C)C(OC(=O)C2C(C=C(C)C)C2(C)C)CC1=O` (centres undefined) [Pyrethrin I], the LC retention time is 13.7 min.

Consider `CC(C)(C)c1ccc(CSc2cnn(C(C)(C)C)c(=O)c2Cl)cc1` [Pyridaben], for which the LC retention time was 14 min.

On to `CCOP(=S)(OCC)Oc1ccc(=O)n(-c2ccccc2)n1` [Pyridaphenthion], for which the LC retention time is 12.1 min.

Turning to `CCCCCCCCSC(=O)Oc1cc(Cl)nnc1-c1ccccc1` [Pyridate], the LC retention time was 14.3 min.

Take `CCc1nc(N)nc(N)c1-c1ccc(Cl)cc1` [Pyrimethamine]: the LC retention time is 7.2 min.

Turning to `Cc1cc(C)nc(Nc2ccccc2)n1` [Pyrimethanil], the LC retention time is 9.86 min.

As for `CC(COc1ccc(Oc2ccccc2)cc1)Oc1ccccn1` (centres undefined) [Pyriproxyfen], the LC retention time was 14 min.

For `O=C1CCc2cccc3c2N1CC3` [Pyroquilon], the LC retention time was 7.09 min.

On to `CCOP(=S)(OCC)Oc1cnc2ccccc2n1` [Quinalphos], for which the LC retention time was 11.3 min.

Take `Cc1cnc2c(C(=O)O)c(Cl)ccc2c1` [Quinmerac]: the LC retention time was 3.44 min.

As for `COC(=O)C(C)Oc1ccc(Oc2cnc3cc(Cl)ccc3n2)cc1` (centres undefined) [Quizalofop methyl], the LC retention time was 12.1 min.

As to `CC(CCc1ccc(O)cc1)NCC(O)c1ccc(O)cc1` (centres undefined) [Ractopamine], the LC retention time was 4.5 min.

Turning to `COC(=O)C1C2CC3c4[nH]c5cc(OC)ccc5c4CCN3CC2CC(OC(=O)c2cc(OC)c(OC)c(OC)c2)C1OC` (centres undefined) [Reserpine], the LC retention time is 8.76 min.

Take `CCS(=O)(=O)c1cccnc1S(=O)(=O)NC(=O)Nc1nc(OC)cc(OC)n1` [Rimsulfuron]: the LC retention time is 5.84 min.

Consider `NC(=NN=Cc1ccc(Cl)cc1)NN=Cc1ccc(Cl)cc1` [Robenidine], for which the LC retention time is 10.9 min.

Regarding `Cn1c([N+](=O)[O-])cnc1COC(N)=O` [Ronidazole], the LC retention time was 1.79 min.

Take `CCC1OC(=O)C(C)C(OC2CC(C)(OC)C(O)C(C)O2)C(C)C(OC2OC(C)CC(N(C)C)C2O)C(C)(O)CC(C)C(=NOCOCCOC)C(C)C(O)C1(C)O` (centres undefined) [Roxithromycin]: the LC retention time is 10.7 min.

`CC(C)(C)NCC(O)c1ccc(O)c(CO)c1` (centres undefined) [Salbutamol]: the LC retention time is 2.03 min.

Consider `O=C(O)c1ccccc1O` [Salicylic acid], for which the LC retention time was 4.4 min.

On to `CCC(C(=O)O)C1CCC(C)C(C(C)C(O)C(C)C(=O)C(CC)C2OC3(C=CC(O)C4(CCC(C)(C5CCC(O)(CC)C(C)O5)O4)O3)C(C)CC2C)O1` (centres undefined) [Salinomycin], for which the LC retention time was 15.9 min.

As for `O=C(O)c1cn(-c2ccc(F)cc2)c2cc(N3CCNCC3)c(F)cc2c1=O` [Sarafloxacin], the LC retention time is 5.12 min.

Take `CCCC(=NOCC)C1C(=O)CC(CC(C)SCC)CC1=O` (centres undefined) [Sethoxydim]: the LC retention time was 11.8 min.

With `CC1CCCCC1NC(=O)Nc1ccccc1` (centres undefined) [Siduron A], the LC retention time is 9.88 min.

As for `CCNc1nc(Cl)nc(NCC)n1` [Simazine], the LC retention time is 7.91 min.

Consider `CCNc1nc(NCC)nc(SC)n1` [Simetryn], for which the LC retention time is 8.78 min.

In the case of `CCC(C)(C)C(=O)OC1CC(C)C=C2C=CC(C)C(CCC3CC(O)CC(=O)O3)C21` (centres undefined) [Simvastatin], the LC retention time is 14.2 min.

For the molecule `CCC1CCCC(OC2CCC(N(C)C)C(C)O2)C(C)C(=O)C2=CC3C(C=CC4CC(OC5OC(C)C(OC)C(OC)C5OC)CC43)C2CC(=O)O1` (centres undefined) [Spinosyn A], the LC retention time was 12 min.

`CCC1CCCC(OC2CCC(N(C)C)C(C)O2)C(C)C(=O)C2=CC3C(C=C(C)C4CC(OC5OC(C)C(OC)C(OC)C5OC)CC43)C2CC(=O)O1` (centres undefined) [Spinosyn D]: the LC retention time was 12.5 min.

In the case of `CCCN(CC)CC1COC2(CCC(C(C)(C)C)CC2)O1` (centres undefined) [Spiroxamine], the LC retention time was 10 min.

Consider `CC12Cc3cn[nH]c3CC1CCC1C2CCC2(C)C1CCC2(C)O` (centres undefined) [Stanozolol], for which the LC retention time was 12 min.

Turning to `Nc1ccc(S(=O)(=O)NC(=O)c2ccccc2)cc1` [Sulfabenzamide], the LC retention time was 3 min.

Turning to `Nc1ccc(S(=O)(=O)Nc2ncccn2)cc1` [Sulfadiazine], the LC retention time is 2.09 min.

On to `COc1ncnc(NS(=O)(=O)c2ccc(N)cc2)c1OC` [Sulfadoxine], for which the LC retention time is 5 min.

For `Cc1ccnc(NS(=O)(=O)c2ccc(N)cc2)n1` [Sulfamerazine], the LC retention time was 2.75 min.

`COc1cnc(NS(=O)(=O)c2ccc(N)cc2)nc1` [Sulfameter]: the LC retention time was 3.2 min.

For `Cc1cc(C)nc(NS(=O)(=O)c2ccc(N)cc2)n1` [Sulfamethazine], the LC retention time is 3.59 min.

In the case of `Cc1nnc(NS(=O)(=O)c2ccc(N)cc2)s1` [Sulfamethiazole], the LC retention time was 3.19 min.

For `Cc1cc(NS(=O)(=O)c2ccc(N)cc2)no1` [Sulfamethoxazole], the LC retention time is 3.91 min.

Consider `COc1ccc(NS(=O)(=O)c2ccc(N)cc2)nn1` [Sulfamethoxypyridazine], for which the LC retention time was 3.65 min.

As to `CC(=O)Nc1ccc(S(=O)(=O)Nc2ccc([N+](=O)[O-])cc2)cc1` [Sulfanitran], the LC retention time is 7.27 min.

As to `Nc1ccc(S(=O)(=O)Nc2ccccn2)cc1` [Sulfapyridine], the LC retention time was 2.55 min.

`Nc1ccc(S(=O)(=O)Nc2nccs2)cc1` [Sulfathiazole]: the LC retention time was 2.26 min.

As for `CCS(=O)(=O)c1nc2ccccn2c1S(=O)(=O)NC(=O)Nc1nc(OC)cc(OC)n1` [Sulfosulfuron], the LC retention time was 6.42 min.

As to `CCOP(=S)(OCC)OP(=S)(OCC)OCC` [Sulfotep], the LC retention time is 11.5 min.

Consider `CCCSP(=S)(OCC)Oc1ccc(SC)cc1` (centres undefined) [Sulprofos], for which the LC retention time was 14.2 min.

For `CC(=O)OCC12CC(OC(=O)CC(C)C)C(C)=CC1OC1C(O)C(OC(C)=O)C2(C)C12CO2` (centres undefined) [T2 Toxin], the LC retention time was 9.98 min.

Turning to `CCCCCc1cc(O)c2c(c1)OC(C)(C)C1CC=C(C(=O)O)CC21` (centres undefined) [THC-COOH], the LC retention time was 13.9 min.

For `CCCCCc1cc(O)c2c(c1)OC(C)(C)C1CCC(C)=CC21` (centres undefined) [THC], the LC retention time was 15.2 min.

On to `CC(C)(C)C(O)(CCc1ccc(Cl)cc1)Cn1cncn1` (centres undefined) [Tebuconazole], for which the LC retention time was 11.8 min.

As for `CCc1ccc(C(=O)NN(C(=O)c2cc(C)cc(C)c2)C(C)(C)C)cc1` [Tebufenozide], the LC retention time was 11.5 min.

Turning to `CCc1nn(C)c(C(=O)NCc2ccc(C(C)(C)C)cc2)c1Cl` [Tebufenpyrad], the LC retention time is 13.2 min.

With `CC(C)N(Cc1ccccc1)C(=O)C(C)(C)C` [Tebutam], the LC retention time was 11.1 min.

`CNC(=O)N(C)c1nnc(C(C)(C)C)s1` [Tebuthiuron]: the LC retention time was 7.79 min.

With `O=C(NC(=O)c1c(F)cccc1F)Nc1cc(Cl)c(F)c(Cl)c1F` [Teflubenzuron], the LC retention time was 13 min.

For `CN1C(=O)C(O)N=C(c2ccccc2)c2cc(Cl)ccc21` (centres undefined) [Temazepam], the LC retention time was 10.1 min.

As for `COP(=S)(OC)Oc1ccc(Sc2ccc(OP(=S)(OC)OC)cc2)cc1` [Temephos (Abate)], the LC retention time was 13 min.

As to `Cc1[nH]c(=O)n(C(C)(C)C)c(=O)c1Cl` [Terbacil], the LC retention time was 7.42 min.

In the case of `CN(CC=CC#CC(C)(C)C)Cc1cccc2ccccc12` [Terbinafine], the LC retention time is 13.7 min.

As to `CCNc1nc(NC(C)(C)C)nc(OC)n1` [Terbumeton], the LC retention time is 8.02 min.
